Test results taken from patent US7611721B1, “Adjuvant combination formulations” (priority 2000, dated 2009).
Where two headings read alike, the source gives them in different places.

Legend:
[1] = system: T1SP10MN(A) (−Cys)
Procedure: Mice were immunized subcutaneously in the rump, in a total volume of 0.2 ml equally divided on each side of the tail. Immunizations were administered at varying time intervals, as indicated below. Antigen and cytokines were diluted in phosphate buffered saline to the appropriate concentrations and formulated with adjuvants less than 16 hours prior to immunization, under sterile conditions. Vaccines were mixed by gentle agitation, and stored at 4° C. Formulations were mixed by vortex immediately prior to immunization.
Animals were bled prior to initial immunization, and at indicated time points. Serum was analyzed from individual mice, or as pools from mice within groups.
For analysis of HIV peptide-specific antibody and subclass distribution, peptide was suspended in either carbonate buffer (15 mM Na2CO3, 35 mM NaHCO3, pH 9.6), or PBS, at a concentration of 1 μg/ml and plated to 96 well microtiter plates (Nunc) in a volume of 100:1. After overnight incubation at 37° C., plates were washed, and blocked (0.1% gelatin/PBS) at room temperature for 2-4 hours. ELISA plates were washed with wash buffer (PBS, 0.1% Tween™20) before addition of serially diluted serum (PBS, 0.1% gelatin, 0.05% Tween™20, 0.02% sodium azide). After a four hour incubation, wells were washed and appropriate dilutions of biotinylated anti-isotype/subclass antibodies were added for incubation at 4° C. overnight. Wells were washed and incubated with strepavidin-conjugated horseradish peroxidase. After incubation, wells were washed, and developed with ABTS. Wells were read at 405 nm. Titers were standardized using control sera.
Reciprocal anti-HIV peptide-specific IgG endpoint titers were measured from pooled serum (n=5 Balb/c) at the indicated time points after initial immunization. Mice were immunized subcutaneously in the rump with 25 μg of T1SP10MN(A) (−Cys), unless otherwise indicated, on day 0, and on day 27. For recipients of Freund's adjuvants, mice were primed with peptide emulsified in CFA, and boosted with IFA. MPL™ SE was provided as an emulsion containing 2% squalene oil and 50 μg MPL™ per dose. SE is an oil-in-water emulsion vehicle consisting of squalene, glycerol, and an emulsifying agent. Recombinant murine IL-12 was delivered at 50 ng/mouse. Recombinant murine GM-CSF was delivered at 10 μg/mouse.
Reciprocal endpoint IgG subclass titers were measured from pooled serum (n=5 Balb/c) six weeks after initial immunization, two weeks after secondary immunization. Mice were immunized subcutaneously in the rump with 25 μg of peptide, unless otherwise indicated. For recipients of Freund's adjuvants, mice were primed with peptide emulsified in complete Freund's adjuvant, and boosted with incomplete Freund's adjuvant on weeks four and six. MPL™ SE was provided as an emulsion containing 2% squalene oil and 50 μg MPL™ per dose. SE is an oil-in-water emulsion vehicle consisting of squalene, glycerol, and an emulsifying agent. Recombinant murine IL-12 was delivered at 50 ng/mouse. Recombinant murine GM-CSF was delivered at 10 μg/mouse.
Mice were immunized subcutaneously in the rump, in a total volume of 0.2 ml equally divided on each side of the tail. Immunizations were administered on days 0 and 21 with 25 μg of the HIV peptide, together with the indicated amount of adjuvant(s).
Reciprocal anti-peptide IgG endpoint titers were measured from either geometric means from individual mice (GMT) or from pooled serum (n=5 Balb/c), obtained 14 days after the second immunization. IgG1 and IgG2a subclass endpoint titers were also measured from pooled serum.

[2] = system: Neisseria gonorrhoeae Porin B protein; assay: Vaginal wash anti-Porin B protein IgG and IgA titers; format: in vivo, Swiss-Webster mice; conditions: Experiment 11; Swiss-Webster; starting dilution 1/5
Procedure: (§1) Outbred Swiss-Webster mice were divided into six groups of five mice each. Each group received 1 μg of recombinant Porin B protein (from strain FA1090 with 16 amino acids at the amino-terminus from a phage, followed by the mature form of the Porin B protein). […] Mice were immunized subcutaneously in the rump with a total volume of 0.2 ml. Immunizations were administered at week 0 and week 4.
(§2) Mice were bled the day prior to each immunization, and at 13 days after the final immunization. Serum was analyzed from pools from mice within groups. […] All day 0 pre-immunization titers were less than 50. The starting dilution for vaginal lavage analysis was 1/5.

[3] = system: T1SP10MN(A) (−Cys); conditions: Experiment 3, 14 days after second immunization
Procedure: The protocols of Experiment 2 were followed, with Swiss-Webster mice used instead of Balb/c mice. Only reciprocal anti-peptide IgG endpoint titers and vaginal lavage endpoint reciprocal endpoint IgG and IgA antibody titers were measured in this experiment.
Reciprocal anti-T1SP10MN(A) (−Cys) IgG endpoint titers were measured from geometric means from individual Swiss-Webster mice (GMT), obtained 14 days after the second immunization. IgG1 and IgG2a subclass endpoint titers were also measured from pooled serum. For recipients of Freund's adjuvants, mice were primed with peptide emulsified in CFA, and boosted with IFA. […] Aqueous MPL™ was delivered at 50 μg per dose. Recombinant murine IL-12 was delivered at 40 ng/mouse. Recombinant murine GM-CSF was delivered at 10 μg/mouse.

[4] = system: Neisseria gonorrhoeae Porin B protein; assay: Reciprocal anti-Porin B protein serum IgG endpoint subclass titers; format: in vivo, Swiss-Webster mice; conditions: for Reciprocal anti-Porin B Protein IgG1 endpoint titer, Week 3 / Reciprocal anti-Porin B Protein IgG1 endpoint titer, Week 6 / Reciprocal anti-Porin B Protein IgG2a endpoint titer, Week 3 / Reciprocal anti-Porin B Protein IgG2a endpoint titer, Week 6 / Reciprocal anti-Porin B Protein IgG endpoint titer, Week 3 / Reciprocal anti-Porin B Protein IgG endpoint titer, Week 6: 1 μg Porin B s.c. week 0 and 4
Procedure: Outbred Swiss-Webster mice were divided into five groups of ten mice each. Each group received 1 μg of recombinant Porin B protein (from strain FA1090 with 16 amino acids at the amino-terminus from a phage, followed by the mature form of the Porin B protein). […] Mice were immunized subcutaneously in the rump with a total volume of 0.2 ml, divided equally into each of two sites at the base of the tail/rump. Immunizations were administered at week 0 and week 4.
Mice were bled the day prior to each immunization, and at 13 days after the final immunization. Serum was analyzed from pools from mice within groups. […] All day 0 pre-immunization titers were less than 50.
Individual week 6 IgG titer geometric means against the recombinant Porin B protein were also determined.
as §1, §2

[5] = system: RSV F protein; conditions: pooled serum n=5 Balb/c
[6] = system: spleen cells; assay: Spleen cell proliferation in response to RSV F protein; format: cell-based, Balb/c mice; conditions: Experiment 12; spleen cells 14 days post-secondary immunization; 2.5 μg/ml RSV F protein, 96 hours; normalized to ConA
Procedure: Spleen cells were harvested at 14 days post-secondary immunization and were established in culture at a density of 5×10^5 cells. Cells were cultured for a total of 96 hours. ^3H-thymidine was added to cultures for the last 18 hours. Data are presented as a proliferation index normalized to cells stimulated in culture with ConA ([mean cpm Antigen/mean cpm ConA]−[mean cpm medium/mean cpm ConA])×100. As a result, cells cultured in medium have a background proliferation of 0.

[7] = system: spleen cells; assay: Secretion of interferon-gamma by spleen cells (ELISA); format: cell-based, Balb/c mice; conditions: Experiment 2, 96 hours culture, after subtraction of lysozyme value
Procedure: For proliferation assays and in vitro cytokine analysis, spleen cells were obtained from mice at the indicated time points. Single cell suspensions were prepared from pools of 3-5 mice as indicated in Results. For proliferation and cytokine analysis, cells were suspended in round bottom 96 well culture plates precoated overnight with HIV peptide antigens, control proteins, or RPMI-10 only. Spleen cells were added at 5×10^5 cells/well using culture medium having 2× supplements. Cell culture supernatants were harvested from triplicate wells for cytokine analysis three or six days after culture initiation. Immediately after supernatant harvest, cultures were pulsed with ^3H-thymidine for 18-24 hours, and harvested to quantify cell proliferation.
For cytokine analysis, cell culture supernatants were added to wells coated with BVD6-11B11 (for anti-IL4), or R4-6A2 (for interferon-gamma). After incubation and washing, wells were developed using biotin-labeled BVD6-24G2 (for IL4) or XMG 1.2 (for interferon-gamma). The concentration of cytokines was determined using a standard curve prepared from recombinant murine interferon-gamma or interleukin-4. All cytokine reagents were purchased from Pharmingen (San Diego, Calif.).
Interferon-gamma secreted into culture by spleen cells stimulated with 25 μg T1SP10MN(A) (−Cys). Spleen cells were harvested from pools of five Balb/c female mice and cultured with the indicated antigenic stimuli (the same as in Example 6) for either three or six days. Interferon-gamma levels were determined by ELISA, and compared to a standard having a known concentration. Blank wells indicate that the assay could not detect Interferon-gamma from those culture conditions. The lower limit of detection sensitivity was 4 picograms/ml.
Cells were cultured for a total of 96 hours. Cell culture supernatants were analyzed for interferon-gamma by ELISA. All values were after subtraction from those determined from supernatants of cells stimulated with 10 μg of lysozyme. Results which were below the limit of detection, after subtraction from stimulation induced with lysozyme are indicated as “bd”. The adjuvants were the same as those in Example 12.

[8] = Experiment 2, pooled serum n=5 Balb/c, 14 days after second immunization
[9] = Experiment 4, individual Balb/c mouse, day 41, 13 days after secondary immunization (days 0 and 28)
[10] = Experiment 4, pooled serum n=5 Balb/c, day 41, 13 days after secondary immunization
[11] = Experiment 5, pooled serum n=5 Balb/c, immunized days 0 and 22, bled day 42
[12] = Experiment 10, pooled serum n=10 Swiss-Webster
[13] = Experiment 11, pooled serum n=5 Swiss-Webster
[14] = Experiment 12, 3 μg F protein i.m. week 0 and 4
[15] = Experiment 13, F protein week 0 and 4
[16] = Experiment 14, 3 μg F protein s.c. week 0 and 4

Sequence of RSV F protein (P03420 137-574): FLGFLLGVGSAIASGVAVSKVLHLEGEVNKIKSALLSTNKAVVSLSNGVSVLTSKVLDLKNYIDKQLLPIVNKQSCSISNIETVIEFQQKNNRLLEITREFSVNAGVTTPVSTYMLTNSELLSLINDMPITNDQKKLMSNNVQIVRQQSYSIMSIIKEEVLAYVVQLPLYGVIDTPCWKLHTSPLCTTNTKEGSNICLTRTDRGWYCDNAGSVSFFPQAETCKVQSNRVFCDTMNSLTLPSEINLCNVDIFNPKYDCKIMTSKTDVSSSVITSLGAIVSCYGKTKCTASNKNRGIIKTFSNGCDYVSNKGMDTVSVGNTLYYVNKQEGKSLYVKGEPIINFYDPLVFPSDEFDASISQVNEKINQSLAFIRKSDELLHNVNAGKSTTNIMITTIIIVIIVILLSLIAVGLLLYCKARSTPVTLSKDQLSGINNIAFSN

Q: For “3-O-deacylated monophosphoryl lipid A [MPL ™]”, which “Reciprocal anti-T1SP10MN(A) (−Cys) IgG (GMT) endpoint titer” value ([1]; Experiment 2, geometric mean of individual Balb/c mice, 14 days after second immunization) is on record?
A: The value was 241,918.

Q: And the “Reciprocal anti-T1SP10MN(A) (−Cys) IgG1 (pool) endpoint titer” value [1, 8]?
A: The value was 134,428.

Q: And the “Reciprocal anti-T1SP10MN(A) (−Cys) IgG2a (pool) endpoint titer” value [1, 8]?
A: The value was 7,127.

Q: And the “Reciprocal anti-T1SP10MN(A) (−Cys) IgG (pool) endpoint titer” value ([1]; Experiment 2, pooled serum n=5 Balb/c, immunized days 0 and 21, 14 days after second immunization)?
A: The value was 219,705.

Q: And the “IgG serum titer specific for T1SP10MN(A) (−Cys), Mouse #1” value [1, 9]?
A: Its value is 50.

Q: And the “IgG serum titer specific for T1SP10MN(A) (−Cys), Mouse #2” value [1, 9]?
A: Its value is 151,846.

Q: What about the “IgG serum titer specific for T1SP10MN(A) (−Cys), Mouse #3” value [1, 9] of the same substance?
A: Its value is 249,054.

Q: What about the “IgG serum titer specific for T1SP10MN(A) (−Cys), Mouse #4” value [1, 9] of the same substance?
A: The value was 436,378.

Q: And the “IgG serum titer specific for T1SP10MN(A) (−Cys), Mouse #5” value [1, 9]?
A: The value was 1,245,470.

Q: And the “Geometric Mean IgG serum titer specific for T1SP10MN(A) (−Cys), GMT” value ([1]; Experiment 4, n=5 Balb/c, day 41, 13 days after secondary immunization)?
A: The value was 63,452.

Q: And the “Reciprocal anti-T1SP10MN(A) (−Cys) IgG1 endpoint titer” value [1, 10]?
A: The value was 33,544.

Q: And the “Reciprocal anti-T1SP10MN(A) (−Cys) IgG2a endpoint titer” value [1, 10]?
A: The value was 212.

Q: What about the “Reciprocal anti-T1SP10MN(A) (−Cys) IgG2b endpoint titer” value [1, 10] of the same substance?
A: Its value is <100.

Q: And the “Reciprocal anti-T1SP10MN(A) (−Cys) IgG GMT” value ([1]; Experiment 5, geometric mean n=5 Balb/c, immunized days 0 and 22, bled day 42)?
A: Its value is 2,032,441.

Q: What about the “Reciprocal anti-T1SP10MN(A) (−Cys) IgG1 endpoint titer” value [1, 11] of the same substance?
A: The value was 1,314,771.

Q: And the “Reciprocal anti-T1SP10MN(A) (−Cys) IgG2a endpoint titer” value [1, 11]?
A: The value was 9,688.

Q: And the “Reciprocal anti-T1SP10MN(A) (−Cys) IgG2b endpoint titer” value [1, 11]?
A: The value was 13,716.

Q: What about the “Reciprocal anti-T1SP10MN(A) (−Cys) IgG endpoint titer” value [1, 11] of the same substance?
A: The value was 2,635,118.

Q: What about the “Vaginal Wash IgA titer, anti-Porin B Protein” value [2] of the same substance?
A: Its value is 5.

Q: What about the “Vaginal Wash IgG titer, anti-Porin B Protein” value [2] of the same substance?
A: The value was 54.

Q: What about the “Reciprocal anti-HIV peptide IgG (GMT) endpoint titer” value ([3]; individual Swiss-Webster mice) of the same substance?
A: Its value is 1,960.

Q: What about the “Reciprocal anti-HIV peptide IgG1 (pool) endpoint titer” value ([3]; pooled serum Swiss-Webster) of the same substance?
A: The value was <1000.

Q: And the “Reciprocal anti-HIV peptide IgG2a (pool) endpoint titer” value ([3]; pooled serum Swiss-Webster)?
A: The value was <1000.

Q: What about the “Reciprocal anti-Porin B Protein IgG1 endpoint titer, Week 3” value [4, 12] of the same substance?
A: The value was 171.

Q: What about the “Reciprocal anti-Porin B Protein IgG1 endpoint titer, Week 6” value [4, 12] of the same substance?
A: Its value is 23,465.

Q: And the “Reciprocal anti-Porin B Protein IgG2a endpoint titer, Week 3” value [4, 12]?
A: Its value is 318.

Q: And the “Reciprocal anti-Porin B Protein IgG2a endpoint titer, Week 6” value [4, 12]?
A: Its value is 20,422.

Q: What about the “Reciprocal anti-Porin B Protein IgG endpoint titer, Week 3” value [4, 12] of the same substance?
A: Its value is 3,381.

Q: What about the “Reciprocal anti-Porin B Protein IgG endpoint titer, Week 6” value [4, 12] of the same substance?
A: Its value is 431,529.

Q: What about the “Individual IgG titers against recombinant Porin B protein, Geometric Mean” value ([4]; Experiment 10, week 6, Swiss-Webster) of the same substance?
A: Its value is 217,114.

Q: What about the “Reciprocal anti-Porin B Protein IgG1 endpoint titer, Week 3” value [4, 13] of the same substance?
A: Its value is 500.

Q: And the “Reciprocal anti-Porin B Protein IgG1 endpoint titer, Week 6” value [4, 13]?
A: The value was 76,640.

Q: What about the “Reciprocal anti-Porin B Protein IgG2a endpoint titer, Week 3” value [4, 13] of the same substance?
A: The value was 1,925.

Q: What about the “Reciprocal anti-Porin B Protein IgG2a endpoint titer, Week 6” value [4, 13] of the same substance?
A: Its value is 60,910.

Q: What about the “Reciprocal anti-Porin B Protein IgG endpoint titer, Week 3” value [4, 13] of the same substance?
A: The value was 5,656.

Q: What about the “Reciprocal anti-Porin B Protein IgG endpoint titer, Week 6” value [4, 13] of the same substance?
A: Its value is 265,127.

Q: What about the “Reciprocal anti-RSV F Protein IgG1 endpoint titer, Week 3” value [5, 14] of the same substance?
A: Its value is 28,134.

Q: And the “Reciprocal anti-RSV F Protein IgG1 endpoint titer, Week 6” value [5, 14]?
A: Its value is 900,863.

Q: And the “Reciprocal anti-RSV F Protein IgG2a endpoint titer, Week 3” value [5, 14]?
A: The value was 11,882.

Q: What about the “Reciprocal anti-RSV F Protein IgG2a endpoint titer, Week 6” value [5, 14] of the same substance?
A: The value was 1,057,108.

Q: And the “Reciprocal anti-RSV F Protein IgG endpoint titer, Week 3” value [5, 14]?
A: The value was 124,197.

Q: And the “Reciprocal anti-RSV F Protein IgG endpoint titer, Week 6” value [5, 14]?
A: Its value is 3,310,838.

Q: What about the “Reciprocal anti-RSV F Protein IgG1 endpoint titer, Week 3” value [5, 15] of the same substance?
A: Its value is 21,930.

Q: What about the “Reciprocal anti-RSV F Protein IgG1 endpoint titer, Week 6” value [5, 15] of the same substance?
A: Its value is 1,384,927.

Q: And the “Reciprocal anti-RSV F Protein IgG2a endpoint titer, Week 3” value [5, 15]?
A: The value was 61,253.

Q: What about the “Reciprocal anti-RSV F Protein IgG2a endpoint titer, Week 6” value [5, 15] of the same substance?
A: The value was 955,685.

Q: And the “Reciprocal anti-RSV F Protein IgG endpoint titer, Week 3” value [5, 15]?
A: The value was 104,702.

Q: What about the “Reciprocal anti-RSV F Protein IgG endpoint titer, Week 6” value [5, 15] of the same substance?
A: The value was 6,153,833.

Q: What about the “Reciprocal anti-RSV F Protein IgG1 endpoint titer, Week 3” value [5, 16] of the same substance?
A: Its value is 55,767.

Q: And the “Reciprocal anti-RSV F Protein IgG1 endpoint titer, Week 6” value [5, 16]?
A: Its value is 402,128.

Q: And the “Reciprocal anti-RSV F Protein IgG2a endpoint titer, Week 3” value [5, 16]?
A: The value was 8,397.

Q: What about the “Reciprocal anti-RSV F Protein IgG2a endpoint titer, Week 6” value [5, 16] of the same substance?
A: The value was 170,252.

Q: And the “Reciprocal anti-RSV F Protein IgG endpoint titer, Week 3” value [5, 16]?
A: The value was 26,179.

Q: And the “Reciprocal anti-RSV F Protein IgG endpoint titer, Week 6” value [5, 16]?
A: The value was 3,467,097.

Q: What about the “Normalized Proliferation Index” value [6] of the same substance?
A: Its value is 0.4.

Q: And the “Secretion of Interferon-gamma, Con A 5 μg/ml” value [7]?
A: The value was 203 units/ml.

Q: And the “Secretion of Interferon-gamma, HIV Peptide 1.1 μg/ml” value ([7]; bd = below limit of detection)?
A: The value was “bd”.

Q: What about the “Secretion of Interferon-gamma, HIV Peptide 3.3 μg/ml” value ([7]; bd = below limit of detection) of the same substance?
A: The value was “bd”.

Q: And the “Secretion of Interferon-gamma, HIV Peptide 10 μg/ml” value ([7]; bd = below limit of detection)?
A: Its value is 5 units/ml.
